Data on three compounds can be found in paper PMC8304783, “Antiadhesive Properties of Imidazolium Ionic Liquids Based on (−)-Menthol Against Candida spp” (International Journal of Molecular Sciences, 2021).

Format in all cases: cell-based
The test system of one series is sheep erythroid PMs. Description: Hemolysis assay. The conditions noted are these: sheep RBCs. On the procedure:
To examine any possible toxic effect towards animal cells, ILs were tested for their lytic activity on sheep erythroid PMs, in comparison to AMB (Table 3). For this part of study, higher concentrations were selected, corresponding to MFC values of tested fungi (12.5; 25 and 50 µM in case of ILs, and 0.25; 0.5 and 1 µM in case of AMB, Table 1). The compounds were ranked in terms of hemolytic activity as follows: 1a > 1b > 2a. IL with alkoxymethyl chain (2a) produced <5% hemolysis, regardless of the concentration used. Compounds with alkyl substituents (1a and 1b) were more hemolytic in 12.5 than in 25 µM concentrations, and in the highest concentration (50 µM), both compounds produced >10% and >5% hemolysis, respectively.
ILs were tested for hemolytic activity, as described previously. Briefly, 5 mL of fresh sheep blood was centrifuged (2000 rpm, 15 min), washed with PBS and resuspended in PBS to achieve hematocrit level of 50%. Red blood cells (RBCs) were treated with ILs (concentrations = 12.5, 25 and 50 µM) for 2 h at 37 °C. Afterwards, RBCs were centrifuged (2000 rpm, 5 min) and the absorbance of the supernatant was measured at 540 nm (ASYS UVM 340 Biogenet). The percentage of hemolysis was determined in comparison to the hemoglobin absorbance released by a 1% SDS solution (100% hemolysis).

Another series has as its system C. albicans. Description: Yeast-to-hyphae transition (FBS-induced hyphae formation). The conditions noted are these: FBS-induced (10%), ILs 25 µM, 2 h, 37 °C; control 94 ± 0.6%. On the procedure: Fungal adhesion to biomedical surfaces is strongly related to the structure of the cell wall, and the presence of adhesins (Als proteins) on the surface of the cell. In turn, the progression to biofilm formation is dependent on the ability of C. albicans to form hyphae. In conditions similar to those above (ILs conc. = 25 µM), we examined C. albicans cell wall integrity, its ability to form hyphae, and the level of ALS genes expression, encoding Als1 and Als5 adhesins (Figure 3). […] Despite some reduction, the result was not statistically significant (p = 0.12). On the other hand, after the treatment with IL 2a, the expression of ALS1 and ALS5 genes was reduced by 50 or 55%, respectively (Figure 3C). The results were statistically significant in both cases (p = 0.04 for either ALS gene). However, in case of compounds with alkyl substituents (1a and 1b), the reduction of gene expression was to a lesser degree. […] Despite observing a chain-length dependence, the results were not statistically significant (p = 0.07 for both ALS gene after treatment with 1b).
Experiments were performed as described before, with modifications. YPD-grown C. albicans were pelleted, washed with fresh YPD medium and resuspended in YPD medium (OD600 = 0.4). The suspensions were treated with ILs (conc. = 25 µM) and FBS (final conc. = 10%) for 2 h at 37 °C. The samples were observed under the Zeiss Axio Imager A2 microscope equipped with Canon PowerShot G10 camera for assessment of cell morphology. For quantitative estimation, cells of each assay were counted in three independent repetitions determining the percentage of hyphae forming cells.

Another series has as its system C. albicans B3. In words: MIC90 and MFC towards clinical isolates. Particulars: Candida albicans, clinical isolate B3 (FLC-sensitive); for MFC: read-out: Minimal fungicidal concentration (MFC); for MIC90: read-out: Minimal inhibitory concentration (MIC90). On the procedure:
(§1) Experiments were performed according to the Clinical and Laboratory Standards Institute (2008), 3rd ed. M27-A3 [51], with modifications described previously. Briefly, MICs were determined by serially diluting ILs in YPD medium in sterile 96-well plates (Sarstedt) and inoculating with fungal suspensions (final OD600 per well = 0.01). After incubation (48 h; 28 °C), the OD600 was measured (ASYS UVM 340 Biogenet). […] Each well was then replated on YPD agar and incubated for 5 days at 28 °C.
(§2) The effect of imidazolium ILs based on of (1R,2S,5R)‐(−)‐menthol was evaluated on clinical, fluconazole(FLC)‐resistant and FLC‐sensitive C. albicans isolates. C. albicans Gu4 and Gu5 strains were isolated from a patient before and after fluconazole administration, respectively.
(§3) Azole‐resistance of Gu5 origins in overexpression of CDR1 and CD R2. C. albicans B3 and B4 strains […]
(§4) Azole‐resistance of B4 results from overexpression of MDR1. The strains were generous gifts from Prof. S. Milewski (Gdańsk, Poland) and Prof. J. Morschhäuser (Wurzburg, Germany). They are originally referenced in: Franz, R., Ruhnke, M. & Morschhäuser, J. Molecular aspects of fluconazole resistance development in Candida albicans. Mycoses 42, 453–458, (1999).
(§5) Table S1 summarizes the minimal inhibitory and fungicidal concentration (MIC90 and MFC, respectively) values of ILs tested against the C. albicans isolates (for ILs structures see section 5.2. in the mai n text). No difference in case of MIC90 values between the strains was observed. However, MFC values were two‐fold lower for the compounds 1b and 2a in case of B3 and B4 isolates. The MFC value of the compound 1a wa s two‐fold higher on ly in ca se of Gu5 strain.
(§6) Table S1. Minimal inhibitory concentrations (MIC90; μM) and minimal fungicidal concentrations (MFC; μM) of ionic liquids (ILs ) or fluconazole (FLC) towards clinical C. albicans isolates.

The next series concerns C. albicans B4. Description: MIC90 and MFC towards clinical isolates. The conditions noted are these: Candida albicans. On the procedure: as §1, §2, §3, §4, §5, §6
The next series relates to C. albicans Gu4. Description: MIC90 and MFC towards clinical isolates. Particulars: Candida albicans, clinical isolate Gu4 (FLC-sensitive); for MFC: read-out: Minimal fungicidal concentration (MFC); for MIC90: read-out: Minimal inhibitory concentration (MIC90). As to the method: as §1, §2, §3, §4, §5, §6
Another series relates to C. albicans Gu5. In words: MIC90 and MFC towards clinical isolates. Particulars: Candida albicans. As to the method: as §1, §2, §3, §4, §5, §6
Setting [1] is: ILs conc. 12.5 µM, 2 h, 37 °C, 1% SDS = 100% hemolysis.
Where [2] appears, read: ILs conc. 25 µM, 2 h, 37 °C, 1% SDS = 100% hemolysis.
[3] abbreviates: ILs conc. 50 µM, 2 h, 37 °C, 1% SDS = 100% hemolysis.
The mark [4] stands for this setting: B4, read-out: Minimal fungicidal concentration (MFC).
[5] abbreviates: B4, read-out: Minimal inhibitory concentration (MIC90).
The mark [6] stands for this setting: GU5, read-out: Minimal fungicidal concentration (MFC).
[7] abbreviates: GU5, read-out: Minimal inhibitory concentration (MIC90).

The structures appear in SMILES notation. Read-outs that look alike come from different tables or passages of the source. Bounds are passed on as bounds.

Consider `CCCCCCCCCCn1cc[n+](CO[C@@H]2C[C@H](C)CC[C@H]2C(C)C)c1` [1b, 3-decyl-1-[(1R,2S,5R)-(−)-menthoxymethyl]imidazolium chloride], for which the Hemolytic activity with sheep erythroid PMs (setting [1]) is 2.1 ± 0.36%; in the series with sheep erythroid PMs (setting [2]) it was 3.01 ± 0.39%; with sheep erythroid PMs (setting [3]) it was 3.23 ± 0.6%. For the same compound, in the series with C. albicans, the “Percentage of cells forming hyphae” value is < 1%. Also, the MFC in the series on C. albicans B3 was determined as 25 µM; in the series with C. albicans B4 (setting [4]), 25 µM; with C. albicans Gu4, 50 µM; with C. albicans Gu5 (setting [6]), 50 µM. The MIC90 in the series with C. albicans B3, in the series on C. albicans B4 (setting [5]), in the series with C. albicans Gu4 and with C. albicans Gu5 (setting [7]) was 25 µM throughout.
On to `CCCCCCCCCOCn1cc[n+](CO[C@@H]2C[C@H](C)CC[C@H]2C(C)C)c1` [2a, 1-(1R,2S,5R)-(−)-menthoxymethyl-3-nonyloxymethylimidazolium chloride], for which the Hemolytic activity with sheep erythroid PMs (setting [1]) is given as 4.55 ± 0.82%; in the series on sheep erythroid PMs (setting [2]), 1.78 ± 0.44%; in the series with sheep erythroid PMs (setting [3]) it was 6.09 ± 0.48 %; in the series on sheep erythroid PMs (regardless of the concentration used (12.5; 25 and 50 µM)) it was < 5%. For the same compound, in the series with C. albicans, the “Percentage of cells forming hyphae” value is 78.2 ± 17.2%. Besides, the MFC in the series on C. albicans B3 worked out at 12.5 µM; in the series on C. albicans B4 (setting [4]), 12.5 µM; in the series with C. albicans Gu4 it was 25 µM; in the series with C. albicans Gu5 (setting [6]), 25 µM. Also, the MIC90 in the series on C. albicans B3, in the series with C. albicans B4 (setting [5]), in the series with C. albicans Gu4 and in the series with C. albicans Gu5 (setting [7]) was 12.5 µM each time.
As to `CCCCCCCCCn1cc[n+](CO[C@@H]2C[C@H](C)CC[C@H]2C(C)C)c1` [1a, 1-[(1R,2S,5R)-(−)-menthoxymethyl]-3-nonylimidazolium chloride], the Hemolytic activity in the series with sheep erythroid PMs (setting [1]) is listed as 4.81 ± 0.02 %; with sheep erythroid PMs (setting [2]), 1.51 ± 0.53%; in the series on sheep erythroid PMs (setting [3]), 11.56 ± 2.13%. Besides, in the series on C. albicans, the “Percentage of cells forming hyphae” value is listed as < 1%. The MFC was 25 µM with C. albicans B3; 25 µM in the series on C. albicans B4 (clinical isolate B4 (FLC-resistant, MDR1 overexpression), read-out: Minimal fungicidal concentration (MFC)); 25 µM with C. albicans Gu4; 50 µM in the series with C. albicans Gu5 (clinical isolate Gu5 (FLC-resistant, CDR1/CDR2 overexpression), read-out: Minimal fungicidal concentration (MFC)). Moreover, the MIC90 in the series on C. albicans B3 amounted to 12.5 µM; with C. albicans B4 (clinical isolate B4 (FLC-resistant, MDR1 overexpression), read-out: Minimal inhibitory concentration (MIC90)), 12.5 µM; with C. albicans Gu4, 12.5 µM; in the series with C. albicans Gu5 (clinical isolate Gu5 (FLC-resistant, CDR1/CDR2 overexpression), read-out: Minimal inhibitory concentration (MIC90)), 12.5 µM.
